Test results published in patent US12077503B2, “Substituted cyclic amides and their use as herbicides” (FMC CORPORATION, priority 2015, dated 2024).

How the values were obtained:
Format in all cases: in vivo
[1] = test system: barnyardgrass (Echinochloa crus-galli); experiment: Test G Pre-Emergence Protocol; conditions: Echinochloa crus-galli, pre-emergence, 312 h, evaluated after 13 days; for pest or weed control at 15.625 g/ha: 15.625 g ai/ha; for pest or weed control at 15.625 g/ha / pest or weed control at 250 g/ha: read-out: Barnyardgrass damage rating (100=total damage to plant; 0=no damage to plant); for pest or weed control at 62.5 g/ha: 62.5 g ai/ha, 100=total damage to plant, 0=no damage to plant, read-out: Barnyardgrass damage rating; for pest or weed control at 250 g/ha: 250 g ai/ha
Method in brief: (§1)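 One day after sowing, pots are treated with a spray of test compound formulated in acetone/water 50:50 plus 0.5% Tween 20, giving 15.625, 62.5 or 250 g/ha. Evaluation on a 0–100 damage scale follows 13 days of glasshouse growth.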

corn (Zea mays) [2] = experiment: Test G Pre-Emergence Protocol; conditions: Zea mays, pre-emergence, 312 h, evaluated after 13 days; for plant injury at 15.625 g/ha: 15.625 g ai/ha; for plant injury at 15.625 g/ha / plant injury at 250 g/ha: read-out: Corn damage rating (100=total damage to plant; 0=no damage to plant); for plant injury at 62.5 g/ha: 62.5 g ai/ha, 100=total damage to plant, 0=no damage to plant, read-out: Corn damage rating; for plant injury at 250 g/ha: 250 g ai/ha
Method in brief: as §1

[3] = test system: giant foxtail (Setaria faberi); experiment: Test G Pre-Emergence Protocol; conditions: Setaria faberi, pre-emergence, 312 h, evaluated after 13 days; for pest or weed control at 15.625 g/ha: 15.625 g ai/ha; for pest or weed control at 15.625 g/ha / pest or weed control at 250 g/ha: read-out: Foxtail, Giant damage rating (100=total damage to plant; 0=no damage to plant); for pest or weed control at 62.5 g/ha: 62.5 g ai/ha, 100=total damage to plant, 0=no damage to plant, read-out: Foxtail, Giant damage rating; for pest or weed control at 250 g/ha: 250 g ai/ha
Method in brief: as §1

[4] = test system: ivy-leaved morning glory (Ipomoea hederacea); experiment: Test G Pre-Emergence Protocol; conditions: Ipomoea, pre-emergence, 312 h, evaluated after 13 days; for pest or weed control at 15.625 g/ha: 15.625 g ai/ha; for pest or weed control at 15.625 g/ha / pest or weed control at 250 g/ha: read-out: Morningglory, Ivy-leaved damage rating (100=total damage to plant; 0=no damage to plant); for pest or weed control at 62.5 g/ha: 62.5 g ai/ha, 100=total damage to plant, 0=no damage to plant, read-out: Morningglory, Ivy-leaved damage rating; for pest or weed control at 250 g/ha: 250 g ai/ha
Method in brief: as §1

[5] = test system: redroot pigweed (Amaranthus retroflexus); experiment: Test G Pre-Emergence Protocol; conditions: Amaranthus retroflexus, pre-emergence, 312 h, evaluated after 13 days; for pest or weed control at 15.625 g/ha: 15.625 g ai/ha; for pest or weed control at 15.625 g/ha / pest or weed control at 250 g/ha: read-out: Pigweed, Redroot damage rating (100=total damage to plant; 0=no damage to plant); for pest or weed control at 62.5 g/ha: 62.5 g ai/ha, 100=total damage to plant, 0=no damage to plant, read-out: Pigweed, Redroot damage rating; for pest or weed control at 250 g/ha: 250 g ai/ha
Method in brief: as §1

[6] = test system: velvetleaf (Abutilon theophrasti); experiment: Test G Pre-Emergence Protocol; conditions: Abutilon theophrasti, pre-emergence, 312 h, evaluated after 13 days; for pest or weed control at 15.625 g/ha: 15.625 g ai/ha; for pest or weed control at 15.625 g/ha / pest or weed control at 250 g/ha: read-out: Velvetleaf damage rating (100=total damage to plant; 0=no damage to plant); for pest or weed control at 62.5 g/ha: 62.5 g ai/ha, 100=total damage to plant, 0=no damage to plant, read-out: Velvetleaf damage rating; for pest or weed control at 250 g/ha: 250 g ai/ha
Method in brief: as §1

[7] = test system: barnyardgrass (Echinochloa crus-galli); experiment: Test G Post-Emergence Protocol; conditions: Echinochloa crus-galli, post-emergence, 312 h, read-out: Barnyardgrass damage rating; for pest or weed control at 15.625 g/ha: 15.625 g ai/ha, evaluated after 13 days (100=total damage to plant; 0=no damage to plant); for pest or weed control at 62.5 g/ha: 62.5 g ai/ha; for pest or weed control at 62.5 g/ha / pest or weed control at 250 g/ha: evaluated after 13 days, 100=total damage to plant, 0=no damage to plant; for pest or weed control at 250 g/ha: 250 g ai/ha
Method in brief: (§2)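 Scores run 0 (no damage) to 100 (total damage) and were taken 13 days after spraying. Plants had been raised in pots for 8 days under glasshouse control (24/16 °C, 14 h photoperiod, 65% humidity) and then treated at 15.625, 62.5 or 250 g/ha.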

corn (Zea mays) [8] = experiment: Test G Post-Emergence Protocol; conditions: Zea mays, post-emergence, 312 h, read-out: Corn damage rating; for plant injury at 15.625 g/ha: 15.625 g ai/ha, evaluated after 13 days (100=total damage to plant; 0=no damage to plant); for plant injury at 62.5 g/ha: 62.5 g ai/ha; for plant injury at 62.5 g/ha / plant injury at 250 g/ha: evaluated after 13 days, 100=total damage to plant, 0=no damage to plant; for plant injury at 250 g/ha: 250 g ai/ha
Method in brief: as §2

[9] = test system: giant foxtail (Setaria faberi); experiment: Test G Post-Emergence Protocol; conditions: Setaria faberi, post-emergence, 312 h, read-out: Foxtail, Giant damage rating; for pest or weed control at 15.625 g/ha: 15.625 g ai/ha, evaluated after 13 days (100=total damage to plant; 0=no damage to plant); for pest or weed control at 62.5 g/ha: 62.5 g ai/ha; for pest or weed control at 62.5 g/ha / pest or weed control at 250 g/ha: evaluated after 13 days, 100=total damage to plant, 0=no damage to plant; for pest or weed control at 250 g/ha: 250 g ai/ha
Method in brief: as §2

[10] = test system: ivy-leaved morning glory (Ipomoea hederacea); experiment: Test G Post-Emergence Protocol; conditions: Ipomoea, post-emergence, 312 h, read-out: Morningglory, Ivy-leaved damage rating; for pest or weed control at 15.625 g/ha: 15.625 g ai/ha, evaluated after 13 days (100=total damage to plant; 0=no damage to plant); for pest or weed control at 62.5 g/ha: 62.5 g ai/ha; for pest or weed control at 62.5 g/ha / pest or weed control at 250 g/ha: evaluated after 13 days, 100=total damage to plant, 0=no damage to plant; for pest or weed control at 250 g/ha: 250 g ai/ha
Method in brief: as §2

[11] = test system: redroot pigweed (Amaranthus retroflexus); experiment: Test G Post-Emergence Protocol; conditions: Amaranthus retroflexus, post-emergence, 312 h, read-out: Pigweed, Redroot damage rating; for pest or weed control at 15.625 g/ha: 15.625 g ai/ha, evaluated after 13 days (100=total damage to plant; 0=no damage to plant); for pest or weed control at 62.5 g/ha: 62.5 g ai/ha; for pest or weed control at 62.5 g/ha / pest or weed control at 250 g/ha: evaluated after 13 days, 100=total damage to plant, 0=no damage to plant; for pest or weed control at 250 g/ha: 250 g ai/ha
Method in brief: as §2

[12] = test system: velvetleaf (Abutilon theophrasti); experiment: Test G Post-Emergence Protocol; conditions: Abutilon theophrasti, post-emergence, 312 h, read-out: Velvetleaf damage rating; for pest or weed control at 15.625 g/ha: 15.625 g ai/ha, evaluated after 13 days (100=total damage to plant; 0=no damage to plant); for pest or weed control at 62.5 g/ha: 62.5 g ai/ha; for pest or weed control at 62.5 g/ha / pest or weed control at 250 g/ha: evaluated after 13 days, 100=total damage to plant, 0=no damage to plant; for pest or weed control at 250 g/ha: 250 g ai/ha
Method in brief: as §2

Row | Compound | pest or weed control at 15.625 g/ha [1] [%] | pest or weed control at 62.5 g/ha [1] [%] | pest or weed control at 250 g/ha [1] [%] | plant injury at 15.625 g/ha (corn (Zea mays) [2]) [%] | plant injury at 62.5 g/ha (corn (Zea mays) [2]) [%] | plant injury at 250 g/ha (corn (Zea mays) [2]) [%] | pest or weed control at 15.625 g/ha [3] [%] | pest or weed control at 62.5 g/ha [3] [%] | pest or weed control at 250 g/ha [3] [%] | pest or weed control at 15.625 g/ha [4] [%] | pest or weed control at 62.5 g/ha [4] [%] | pest or weed control at 250 g/ha [4] [%] | pest or weed control at 15.625 g/ha [5] [%] | pest or weed control at 62.5 g/ha [5] [%] | pest or weed control at 250 g/ha [5] [%] | pest or weed control at 15.625 g/ha [6] [%] | pest or weed control at 62.5 g/ha [6] [%] | pest or weed control at 250 g/ha [6] [%] | pest or weed control at 15.625 g/ha [7] [%] | pest or weed control at 62.5 g/ha [7] [%] | other results
1 | CCOc1cc(C)cc(C2CN(C)C(=O)C2C(=O)Nc2cccc(F)c2F)c1 (stereo not drawn) [Compound 1692] | 20 | 70 | 80 | 0 | 60 | 80 | 60 | 80 | 90 | 0 | 0 | 30 | 0 | 10 | 10 | 0 | 0 | 20 | 40 | 70 | pest or weed control at 250 g/ha [7]: 80%; plant injury at 15.625 g/ha (corn (Zea mays) [8]): 20%; plant injury at 62.5 g/ha (corn (Zea mays) [8]): 50%; plant injury at 250 g/ha (corn (Zea mays) [8]): 80%; pest or weed control at 15.625 g/ha [9]: 60%; pest or weed control at 62.5 g/ha [9]: 80%; pest or weed control at 250 g/ha [9]: 80%; pest or weed control at 15.625 g/ha [10]: 40%; pest or weed control at 62.5 g/ha [10]: 30%; pest or weed control at 250 g/ha [10]: 70%; pest or weed control at 15.625 g/ha [11]: 0%; pest or weed control at 62.5 g/ha [11]: 40%; pest or weed control at 250 g/ha [11]: 40%; pest or weed control at 15.625 g/ha [12]: 0%; pest or weed control at 62.5 g/ha [12]: 20%; pest or weed control at 250 g/ha [12]: 30%
2 | CCCOc1cc(OC(F)(F)F)cc(C2CN(C)C(=O)C2C(=O)Nc2cccc(F)c2F)c1 (stereo not drawn) [Compound 1693] | 0 | 70 | 70 | 0 | 30 | 40 | 0 | 50 | 70 | 0 | 20 | 20 | 0 | 0 | 10 | 0 | 0 | 10 | 0 | 30 | pest or weed control at 250 g/ha [7]: 80%; plant injury at 15.625 g/ha (corn (Zea mays) [8]): 0%; plant injury at 62.5 g/ha (corn (Zea mays) [8]): 10%; plant injury at 250 g/ha (corn (Zea mays) [8]): 70%; pest or weed control at 15.625 g/ha [9]: 0%; pest or weed control at 62.5 g/ha [9]: 60%; pest or weed control at 250 g/ha [9]: 80%; pest or weed control at 15.625 g/ha [10]: 0%; pest or weed control at 62.5 g/ha [10]: 50%; pest or weed control at 250 g/ha [10]: 60%; pest or weed control at 15.625 g/ha [11]: 20%; pest or weed control at 62.5 g/ha [11]: 50%; pest or weed control at 250 g/ha [11]: 60%; pest or weed control at 15.625 g/ha [12]: 0%; pest or weed control at 62.5 g/ha [12]: 30%; pest or weed control at 250 g/ha [12]: 20%
